Drawing on patent publication US20190194148A1, “TETRAZOLE-CONTAINING 1,2-CYCLOPROPANE-CARBOXAMIDES” (Bayer Pharma Aktiengesellschaft, priority 2017, published 2019), this text covers IC50 for 23 compounds.

A word on the IC50: it is the concentration that inhibits the measured activity by half.

The target of one assay is T1, human B1 receptor (Homo sapiens, UniProt P46663).
T1 construct: host or cells: CHO-K1
T1 sequence (P46663 1-353): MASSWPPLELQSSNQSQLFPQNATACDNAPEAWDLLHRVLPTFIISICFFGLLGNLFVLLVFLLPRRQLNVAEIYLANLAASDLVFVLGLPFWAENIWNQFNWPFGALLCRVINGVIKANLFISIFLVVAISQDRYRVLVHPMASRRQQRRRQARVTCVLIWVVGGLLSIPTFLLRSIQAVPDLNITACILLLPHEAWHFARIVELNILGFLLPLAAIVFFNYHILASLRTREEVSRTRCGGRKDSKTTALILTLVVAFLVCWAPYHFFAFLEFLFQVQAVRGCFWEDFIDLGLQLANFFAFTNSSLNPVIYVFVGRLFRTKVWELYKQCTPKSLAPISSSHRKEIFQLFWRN
The assay can be described thus: Calcium flux assay (FLIPR) with recombinant CHO-K1 cells expressing human B1 receptor. The format is cell-based. The note with it: absence of 0.1% BSA in assay buffer, read-out: hB1 free IC50. On the procedure: The potency to inhibit the Bradykinin B1 receptors was determined for the example compounds of this invention in a cell-based fluorescent calcium-mobilisation assay. The assay measures the ability of example compounds to inhibit Bradykinin B1 receptor agonist-induced increase of intracellular free Ca^2+ in the cell line expressing B1 receptor. Specifically, calcium indicator-loaded cells are pre-incubated in the absence or presence of different concentrations of example compounds followed by the stimulation with a selective B1 receptor agonist peptide. The change of the intracellular Ca^2+ concentration is monitored with a fluorescent plate reader FLIPR (Molecular Devices).
Calcium Flux Assays (FLIPR) with Cells Expressing Bradykinin B1 Receptor Calcium Flux Assay (FLIPR) with Recombinant Cells for Bradykinin B1 Receptor Antagonist, Either in the Presence (hB1 IC50) or Absence (hB1 free IC50) of 0.1% Bovine Serum Albumin (BSA) in Assay Buffer
CHO-K1 cell line expressing human B1 receptor was purchased from Euroscreen (Gosselies, Belgium, with reference name hB1-D1). The cells were grown in Nutrient Mixture Ham's F12 (Sigma) containing 10% Foetal bovine serum (Sigma) and 400 μg/mL G418 (Sigma), 5 μg/mL puromycin (Sigma).
For the calcium flux assay, 80% confluent cells were detached from the culture vessels with Versene (Gibco), and seeded into 384-well plates (Cell binding Surface; Corning, N.Y.; #3683) at a density of 15,000 cells per well. Cells were seeded in a volume of 50 μL in medium without antibiotics and incubated overnight in a humidified atmosphere with 5% CO2 at 37° C. […] The calcium indicator loaded cells were incubated at 37° C. for 2 hrs. Extracellular dye was then removed and each well was filled with 45 μL of assay buffer. Cell plates were kept in dark until used. Example compounds were assayed at 8 concentrations in triplicate. Serial 10-fold dilutions in 100% DMSO were made at a 100-times higher concentration than the final concentration, and then diluted 1:10 in assay buffer. 5 μL of each diluted compound was added to the well of cell plates (yielding final concentration with 1% DMSO), and incubated for 30 min at 28° C. before the addition of B1 receptor agonist on the FLIPR instrument.
Agonist plates contained the agonist Lys-(Des-Arg)-Bradykinin (Bachem, Brackley) at 3.5×EC90 in assay buffer with 1% DMSO. The addition of agonist 20 μl per well to the assay plate was carried out on the FLIPR instrument while continuously monitoring Ca^2+-dependent fluorescence at 538 nm. A peptide antagonist Lys-(Des-Arg-Leu)-Bradykinin (Bachem, Brackley) at 20 μM was used to determine the full inhibition as control.
Peak fluorescence was used to determine the response to agonist obtained at each concentration of example compound by the following equation:
% Response=100*(RFU(example compound)−RFU(control)/(RFU(DMSO)−RFU(control)
Control=full inhibition by the peptide antagonist Lys-(Des-Arg-Leu)-Bradykinin at 20 μM
The response values were plotted against the logarithm of the compound concentrations. The compounds were tested in triplicates per plate and mean values were plotted in Excel XLfit to determine IC50 values, percentage of maximal inhibition and the Hill slopes.
For orientation: Calcium assays in cells follow changes in intracellular calcium, usually with a dye or a luminescent sensor.
For the compound `O=C(Nc1ccc(-n2cc(C(F)(F)F)cn2)c(-c2nnn[nH]2)c1)C1CC1c1ccccc1` (racemic) [Example 43, 2-Phenyl-N-{3-(1H-tetrazol-5-yl)-4-[4-(trifluoromethyl)-1H-pyrazol-1-yl]phenyl}cyclopro-panecarboxamide], the IC50 was 2210 nM.

As to `CCOc1ccc(-c2ccc(NC(=O)C3CC3c3cnn(C)c3)cc2-c2nnn[nH]2)cn1` (racemic) [Example 81, N-[4-(6-ethoxypyridin-3-yl)-3-(1H-tetrazol-5-yl)phenyl]-2-(1-methyl-1H-pyrazol-4-yl)cyclopro-panecarboxamide], the IC50 worked out at 2500 nM.

Consider `O=C(Nc1cc(F)c(-c2ccc(C(F)(F)F)nc2)c(-c2nnn[nH]2)c1)C1CC1c1ccc(Cl)cc1` (racemic) [Example 62, 2-(4-chlorophenyl)-N-{3-fluoro-5-(1H-tetrazol-5-yl)-4-[6-(trifluoromethyl)pyridin-3-yl]phenyl}cyclopro-panecarboxamide], for which the IC50 came to 947 nM.

In the case of `COc1ccc(-c2cc(F)c(NC(=O)C3CC3c3ccc(Cl)cc3)cc2-c2nnn[nH]2)cc1C` (racemic) [Example 57, 2-(4-chlorophenyl)-N-[5-fluoro-4′-methoxy-3′-methyl-2-(1H-tetrazol-5-yl)biphenyl-4-yl]cyclo-propanecarboxamide], the IC50 is 24 nM.

For the compound `CC(C)(C)c1cnn(-c2ccc(NC(=O)C3CC3c3ccc(Cl)cc3)cc2-c2nnn[nH]2)c1` (racemic) [Example 44, N-[4-(4-tert-butyl-1H-pyrazol-1-yl)-3-(1H-tetrazol-5-yl)phenyl]-2-(4-chlorophenyl)cyclopro-panecarboxamide], the IC50 turned out to be 26 nM.

For the compound `CC(C)(C)c1ccn(-c2ccc(NC(=O)C3CC3c3ccc(Cl)cc3)cc2-c2nnn[nH]2)n1` (racemic) [Example 45, N-[4-(3-tert-butyl-1H-pyrazol-1-yl)-3-(1H-tetrazol-5-yl)phenyl]-2-(4-chlorophenyl)cyclopro-panecarboxamide], the half-inhibitory concentration (IC50) was 463 nM.

As to `O=C(Nc1cc(-c2nnn[nH]2)c(-c2ccc(C(F)(F)F)nc2)cc1O)C1CC1c1ccc(Cl)cc1` (centres unmarked) [Example 83, 2-(4-chlorophenyl)-N-[2-hydroxy-5-(1H-tetrazol-5-yl)-4-[6-(trifluoromethyl)-3-pyridyl]phenyl]cyclo-propanecarboxamide], the IC50 was 188 nM.

In the case of `Cc1cccc(C2CC2C(=O)Nc2ccc(-c3cc4ccccc4s3)c(-c3nnn[nH]3)c2)c1` (racemic) [Example 76, N-[4-(1-Benzothiophen-2-yl)-3-(1H-tetrazol-5-yl)phenyl]-2-(3-methylphenyl)cyclopro-panecarboxamide], the 50% inhibitory concentration (IC50) turned out to be 249 nM.

The assay is the same for the next values; noted with them: presence of 0.1% BSA in assay buffer, read-out: hB1 IC50.
As to `COc1ccc(-c2ccc(NC(=O)C3CC3c3ccccc3)cc2-c2nnn[nH]2)cc1OC` (racemic) [Example 1, N[3′,4′-dimethoxy-2-(1H-tetrazol-5-yl)biphenyl-4-yl]-2-phenylcyclopropanecarboxamide], the IC50 is 209 nM.

For `COc1ccc(-c2c(F)cc(NC(=O)C3CC3C3CCCCC3)cc2-c2nnn[nH]2)cc1OC` (racemic) [Example 60, 2-Cyclohexyl-N-[2-fluoro-3′,4′-dimethoxy-6-(1H-tetrazol-5-yl)biphenyl-4-yl]cyclopro-panecarboxamide], the IC50 came out at 177 nM.

For the compound `CCc1ccccc1C1CC1C(=O)Nc1ccc(-c2ccc(OC)c(OC)c2)c(-c2nnn[nH]2)c1` (racemic) [Example 5, N-[3′,4′-dimethoxy-2-(1H-tetrazol-5-yl)biphenyl-4-yl]-2-(2-ethylphenyl)cyclopro-panecarboxamide], the IC50 is 16 nM.

As for `COCc1ccc(-c2ccc(NC(=O)C3CC3C3CCCCC3)cc2-c2nnn[nH]2)cc1` (racemic) [Example 82, 2-cyclohexyl-N-[4′-(methoxymethyl)-2-(1H-tetrazol-5-yl)biphenyl-4-yl]cyclopropanecarbox-amide], the IC50 came out at 2550 nM.

Consider `COc1ccc(-c2cc(F)c(NC(=O)C3CC3c3cccc(C)c3)cc2-c2nnn[nH]2)cc1C` (racemic) [Example 56, N-[5-Fluoro-4′-methoxy-3′-methyl-2-(1H-tetrazol-5-yl)biphenyl-4-yl]-2-(3-methylphenyl)cyclopro-panecarboxamide], for which the IC50 came to 19 nM.

`COc1cncc(-c2ccc(NC(=O)C3CC3c3cccc(C)c3)cc2-c2nnn[nH]2)c1` (racemic) [Example 25, N-[4-(5-Methoxypyridin-3-yl)-3-(1H-tetrazol-5-yl)phenyl]-2-(3-methylphenyl)cyclopro-panecarboxamide]: the IC50 was determined as 520 nM.

Turning to `CCOc1ccc(-c2ccc(NC(=O)C3CC3c3cnn(C)c3)cc2-c2nnn[nH]2)cn1` (racemic) [Example 81, N-[4-(6-ethoxypyridin-3-yl)-3-(1H-tetrazol-5-yl)phenyl]-2-(1-methyl-1H-pyrazol-4-yl)cyclopro-panecarboxamide], the IC50 was 4070 nM.

As to `COCc1ccc(-c2ccc(NC(=O)C3CC3c3ccc(Cl)cc3)cc2-c2nnn[nH]2)cc1C` (racemic) [Example 32, 2-(4-chlorophenyl)-N-[4′-(methoxymethyl)-3′-methyl-2-(1H-tetrazol-5-yl)biphenyl-4-yl]cyclopro-panecarboxamide], the 50% inhibitory concentration (IC50) turned out to be 22 nM.

Turning to `COc1ccc(-c2cc(F)c(NC(=O)C3CC3c3ccc(Cl)cc3)cc2-c2nnn[nH]2)cc1C` (racemic) [Example 57, 2-(4-chlorophenyl)-N-[5-fluoro-4′-methoxy-3′-methyl-2-(1H-tetrazol-5-yl)biphenyl-4-yl]cyclo-propanecarboxamide], the 50% inhibitory concentration (IC50) amounted to 124 nM.

In the case of `CCOc1ccc(-c2ccc(NC(=O)C3CC3C3CCCCC3)cc2-c2nnn[nH]2)cc1OC` (racemic) [Example 31, 2-cyclohexyl-N-[4′-ethoxy-3′-methoxy-2-(1H-tetrazol-5-yl)biphenyl-4-yl]cyclopropane-carboxamide], the half-maximal inhibitory concentration (IC50) was 27 nM.

With `COc1ccc(-c2ccc(NC(=O)C3CC3C3CCCCC3)cc2-c2nnn[nH]2)cc1` (racemic) [Example 37, 2-cyclohexyl-N-[4′-methoxy-2-(1H-tetrazol-5-yl)biphenyl-4-yl]cyclopropanecarbox-amide], the IC50 worked out at 469 nM.

Consider `O=C(Nc1ccc(-c2ccc(OC(F)(F)F)cc2)c(-c2nnn[nH]2)c1)C1CC1c1ccc(Cl)cc1` (racemic) [Example 41, 2-(4-chlorophenyl)-N-[2-(1H-tetrazol-5-yl)-4′-(trifluoro-methoxy)biphenyl-4-yl]cyclopropanecarbox-amide], for which the half-inhibitory concentration (IC50) is 33 nM.

For the compound `COc1ccc(-c2ccc(NC(=O)C3CC3c3ccc(C)cc3)cc2-c2nnn[nH]2)cc1` (racemic) [Example 36, N-[4′-methoxy-2-(1H-tetrazol-5-yl)biphenyl-4-yl]-2-(4-methylphenyl)cyclopro-panecarboxamide], the 50% inhibitory concentration (IC50) was 662 nM.

Take `COCc1ccc(-c2ccc(NC(=O)C3CC3c3ccc(Cl)cc3)cc2-c2nnn[nH]2)cc1` (racemic) [Example 38, 2-(4-chlorophenyl)-N-[4′-(methoxymethyl)-2-(1H-tetrazol-5-yl)biphenyl-4-yl]cyclopropanecarbox-amide]: the IC50 was 1470 nM.

In the case of `O=C(Nc1cc(-c2nnn[nH]2)c(-c2ccc(C(F)(F)F)nc2)cc1O)C1CC1c1ccc(Cl)cc1` (centres unmarked) [Example 83, 2-(4-chlorophenyl)-N-[2-hydroxy-5-(1H-tetrazol-5-yl)-4-[6-(trifluoromethyl)-3-pyridyl]phenyl]cyclo-propanecarboxamide], the half-inhibitory concentration (IC50) amounted to 484 nM.

With `CCOc1ccc(-c2cc(O)c(NC(=O)C3CC3c3ccc(Cl)cc3)cc2-c2nnn[nH]2)cn1` (single isomer, unassigned) [Example 49, 2-(4-chlorophenyl)-N-[4-(6-ethoxypyridin-3-yl)-2-hydroxy-5-(1H-tetrazol-5-yl)phenyl]cyclopropane-carboxamide], the IC50 was 1580 nM.

For the compound `COc1ccc(-c2ccc(NC(=O)C3CC3c3ccccc3F)cc2-c2nnn[nH]2)cc1OC` (racemic) [Example 3, N-[3′,4′-dimethoxy-2-(1H-tetrazol-5-yl)biphenyl-4-yl]-2-(2-fluorophenyl)cyclopro-panecarboxamide], the IC50 came to 101 nM.

In the case of `CCc1ccc(C2CC2C(=O)Nc2ccc(-c3ccc(OC)c(OC)c3)c(-c3nnn[nH]3)c2)cc1` (racemic) [Example 12, N-[3′,4′-dimethoxy-2-(1H-tetrazol-5-yl)biphenyl-4-yl]-2-(4-ethylphenyl)cyclopro-panecarboxamide], the IC50 was 341 nM.
